Common to all, as to type: cell-based
One experiment deals with T1, NK3 (Homo sapiens, UniProt P29371).
T1 sequence (P29371 1-465): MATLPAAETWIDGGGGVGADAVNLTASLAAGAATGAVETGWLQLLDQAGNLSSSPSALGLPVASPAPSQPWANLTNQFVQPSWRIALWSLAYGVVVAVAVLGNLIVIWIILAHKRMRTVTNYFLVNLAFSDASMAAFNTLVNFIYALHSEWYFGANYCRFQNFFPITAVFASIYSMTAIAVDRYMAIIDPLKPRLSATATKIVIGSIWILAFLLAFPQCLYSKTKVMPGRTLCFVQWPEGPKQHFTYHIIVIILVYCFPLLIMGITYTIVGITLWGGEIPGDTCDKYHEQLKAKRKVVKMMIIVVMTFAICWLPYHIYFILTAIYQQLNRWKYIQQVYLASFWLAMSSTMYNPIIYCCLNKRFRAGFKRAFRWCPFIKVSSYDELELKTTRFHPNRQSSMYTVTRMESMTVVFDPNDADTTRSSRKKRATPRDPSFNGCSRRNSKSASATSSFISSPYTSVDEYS
Briefly: Signal transduction (ST), intracellular Ca++ (FLIPR), NK3. As to conditions: read-out: pIC50 NK3 (converted).

In a further experiment the target is T2, NK2 (Homo sapiens, UniProt P21452).
T2 sequence (P21452 1-398): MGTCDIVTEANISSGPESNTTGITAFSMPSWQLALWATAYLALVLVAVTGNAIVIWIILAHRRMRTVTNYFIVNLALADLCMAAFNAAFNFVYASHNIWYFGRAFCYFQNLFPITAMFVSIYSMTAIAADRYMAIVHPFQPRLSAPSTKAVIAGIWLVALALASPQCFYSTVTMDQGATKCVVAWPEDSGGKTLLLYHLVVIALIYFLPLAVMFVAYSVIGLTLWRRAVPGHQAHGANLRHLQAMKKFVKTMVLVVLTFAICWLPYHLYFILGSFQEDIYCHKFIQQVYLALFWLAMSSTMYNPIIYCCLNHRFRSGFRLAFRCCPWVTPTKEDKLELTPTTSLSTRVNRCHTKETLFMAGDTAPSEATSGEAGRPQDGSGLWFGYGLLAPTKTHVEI
Briefly: Signal transduction (ST), intracellular Ca++ (FLIPR), NK2. As to conditions: read-out: pIC50 NK2 (converted).

Another experiment concerns the target NK1 (Homo sapiens, UniProt P25103). Briefly: Signal transduction (ST), intracellular Ca++ (FLIPR), NK1 antagonistic activity. The following applies: read-out: pIC50 NK1 (converted). In a few lines:
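Confluent cells loaded with 2 μM Fluo3 (1 h, 37 °C, probenecid), preincubated 20 min at RT with antagonist concentration range, then agonist added. Peak Ca++ transient read by FLIPR in Krebs buffer pH 7.4; IC50 by non-linear regression.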

Data on 19 compounds can be found in US7795261B2, “Substituted 1-piperidin-4-yl-4-pyrrolidin-3-yl-piperazine derivatives and their use as neurokinin antagonists” (Janssen Pharmaceutica NV, priority 2002, dated 2010).

Chain of NK1 (P25103 whole entry): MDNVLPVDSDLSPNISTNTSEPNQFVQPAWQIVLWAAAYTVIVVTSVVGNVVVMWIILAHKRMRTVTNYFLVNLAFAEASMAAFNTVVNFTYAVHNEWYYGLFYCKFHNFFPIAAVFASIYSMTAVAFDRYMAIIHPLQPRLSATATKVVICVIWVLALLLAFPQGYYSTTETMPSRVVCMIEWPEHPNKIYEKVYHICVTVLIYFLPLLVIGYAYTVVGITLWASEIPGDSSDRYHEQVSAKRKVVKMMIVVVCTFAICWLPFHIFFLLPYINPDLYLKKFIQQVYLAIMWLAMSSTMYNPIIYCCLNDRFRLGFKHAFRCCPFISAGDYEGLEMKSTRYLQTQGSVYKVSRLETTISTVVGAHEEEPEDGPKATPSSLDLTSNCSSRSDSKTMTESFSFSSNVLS

As to `O=C(c1ccsc1)N1CCC(N2CCN(C3CCN(C(=O)c4cc(C(F)(F)F)cc(C(F)(F)F)c4)C(Cc4ccccc4)C3)CC2)C1` (single isomer, unassigned) [Compound 40], the IC50 is 126 nM at NK3, 2.51 µM on NK2 and 7.94 nM on NK1.
On the same counts, the results for `O=C(C1CCOC1)N1CCC(N2CCN(C3CCN(C(=O)c4cc(C(F)(F)F)cc(C(F)(F)F)c4)C(Cc4ccc(Cl)c(Cl)c4)C3)CC2)C1` (single isomer, unassigned) [Compound 330] are 398 nM, 0.631 µM and 3.16 nM.
For `O=C(c1sccc1CO)N1CCC(N2CCN([C@H]3CCN(C(=O)c4cc(C(F)(F)F)cc(C(F)(F)F)c4)[C@H](Cc4ccccc4)C3)CC2)C1` (stereo partly drawn) [Compound 360] the same measures were 1000 nM, 3.98 µM and 10 nM.
For `O=C(c1ccccc1Cl)N1CCC(N2CCN(C3CCN(C(=O)c4cc(C(F)(F)F)cc(C(F)(F)F)c4)C(Cc4ccc(F)cc4)C3)CC2)C1` (stereo not drawn) [Compound 279] the same measures were 2000 nM, 3.98 µM and 15.8 nM.
On to `Cc1cc(C(=O)N2CCC(N3CCN([C@H]4CCN(C(=O)c5cc(C(F)(F)F)cc(C(F)(F)F)c5)[C@H](Cc5ccccc5)C4)CC3)C2)n(C(C)(C)C)n1` (stereo partly drawn) [Compound 27], for which the results for the IC50 at NK3, at NK2 and on NK1 were 316 nM, 0.631 µM and 15.8 nM, respectively.
For `O=C(c1ccccc1Cl)N1CC[C@@H](N2CCN([C@H]3CCN(C(=O)c4cc(C(F)(F)F)cc(C(F)(F)F)c4)[C@H](Cc4ccc(Cl)c(Cl)c4)C3)CC2)C1` [Compound 266] the same measures were 316 nM, 1 µM and 7.94 nM.
Regarding `O=C(C1CCOC1)N1CCC(N2CCN(C3CCN(C(=O)c4cc(C(F)(F)F)cc(C(F)(F)F)c4)C(Cc4ccc(F)c(F)c4)C3)CC2)C1` (single isomer, unassigned) [Compound 281], the IC50 was 3160 nM on NK3, 3.98 µM at NK2 and 5.01 nM at NK1.
For `O=C(C1CCCCC1)N1CCC(N2CCN(C3CCN(C(=O)c4cc(C(F)(F)F)cc(C(F)(F)F)c4)C(Cc4ccccc4)C3)CC2)C1` (single isomer, unassigned) [Compound 403], the IC50 on NK3 was 2510 nM; on NK2 it was 2.51 µM; on NK1 it was 7.94 nM.
For `Cc1cccc(C(=O)N2CCC(N3CCN([C@H]4CCN(C(=O)c5cc(C(F)(F)F)cc(C(F)(F)F)c5)[C@H](Cc5ccccc5)C4)CC3)C2)c1C` (stereo partly drawn) [Compound 19] the same measures were 398 nM, 7.94 µM and 39.8 nM.
On the same counts, the results for `Cn1ccc(C(=O)N2CCC(N3CCN([C@H]4CCN(C(=O)c5cc(C(F)(F)F)cc(C(F)(F)F)c5)[C@H](Cc5ccccc5)C4)CC3)C2)c1` (stereo partly drawn) [Compound 23] are 501 nM, 3.16 µM and 31.6 nM.
In the case of `O=C(c1ccsc1)N1CCC(N2CCN(C3CCN(C(=O)c4cc(C(F)(F)F)cc(C(F)(F)F)c4)C(Cc4ccccc4)C3)CC2)C1` (single isomer, unassigned) [Compound 39], the IC50 is 398 nM on NK3, 3.16 µM at NK2 and 15.8 nM on NK1.
For `O=C(c1ccccc1O)N1CCC(N2CCN([C@H]3CCN(C(=O)c4cc(C(F)(F)F)cc(C(F)(F)F)c4)[C@H](Cc4ccccc4)C3)CC2)C1` (stereo partly drawn) [Compound 327] the same measures were 2000 nM, 3.98 µM and 6.31 nM.
On the same counts, the results for `O=C(c1cc(C(F)(F)F)cc(C(F)(F)F)c1)N1CC[C@H](N2CCN(C3CCN(S(=O)(=O)c4ccccc4COCc4ccccc4)C3)CC2)C[C@H]1Cc1ccccc1` (stereo partly drawn) [Compound 401] are 1260 nM, 3.16 µM and 251 nM.
On the same counts, the results for `O=C(c1cc(CCOCc2ccccc2)cs1)N1CCC(N2CCN([C@H]3CCN(C(=O)c4cc(C(F)(F)F)cc(C(F)(F)F)c4)[C@H](Cc4ccccc4)C3)CC2)C1` (stereo partly drawn) [Compound 362] are 2510 nM, 2.51 µM and 126 nM.
Consider `O=C(C1CCCCC1)N1CC[C@@H](N2CCN([C@H]3CCN(C(=O)c4cc(C(F)(F)F)cc(C(F)(F)F)c4)[C@H](Cc4ccc(Cl)c(Cl)c4)C3)CC2)C1` [Compound 299], for which the IC50 was 794 nM at NK3, 2.51 µM at NK2 and 7.94 nM on NK1.
For `O=C(c1cc(C(F)(F)F)cc(C(F)(F)F)c1)N1CC[C@H](N2CCN(C3CCN(S(=O)(=O)c4ccccc4)C3)CC2)C[C@H]1Cc1ccccc1` (stereo partly drawn) [Compound 75] the same measures were 398 nM, 1 µM and 25.1 nM.
Turning to `CC(C)(C)OC(=O)NC(C)(C)C(=O)N1CCC(N2CCN(C3CCN(C(=O)c4cc(C(F)(F)F)cc(C(F)(F)F)c4)C(Cc4ccccc4)C3)CC2)C1` (stereo not drawn) [Compound 205], the IC50 on NK3 was 251 nM; at NK2, 3.16 µM; on NK1 it was 10 nM.
For `O=C(c1sccc1CCO)N1CCC(N2CCN([C@H]3CCN(C(=O)c4cc(C(F)(F)F)cc(C(F)(F)F)c4)[C@H](Cc4ccccc4)C3)CC2)C1` (stereo partly drawn) [Compound 369] the same measures were 631 nM, 3.98 µM and 12.6 nM.
On the same counts, the results for `CC(C)(C)C(=O)N1CCCCC1C(=O)N1CCC(N2CCN([C@H]3CCN(C(=O)c4cc(C(F)(F)F)cc(C(F)(F)F)c4)[C@H](Cc4ccccc4)C3)CC2)C1` (stereo partly drawn) [Compound 297] are 1260 nM, 2.51 µM and 6.31 nM.
